Experimental data from ChEMBL document CHEMBL1201862, “PubChem BioAssay data set” (2004).
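Step 1: Grow cells in 96-well plates. Step 2: Expose to compound for 48 hours at 5 concentrations. Step 3: Interpolate endpoints linearly; if unreached, use highest concentration. GI50 marks 50% less growth.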 Active and inactive are the calls of the source. Rule as the data show it: active = GI50 up to about 1.1 µM and inactive = higher.

Tests used:
Experiment in all cases: NCI anticancer screen, dose series, 48 h
[1] = system: SK-OV-3
[2] = system: SW-620
[3] = system: HT-29
[4] = system: U-251
[5] = system: UACC-62
[6] = system: NCI-H226
[7] = system: M14
[8] = system: A549
[9] = system: HL-60
[10] = system: IGROV-1
[11] = system: K562
[12] = system: SNB-19
[13] = system: HOP-92
[14] = system: COLO 205
[15] = system: OVCAR-4
[16] = system: SR

Structure (SMILES): O=C(N/N=C(/c1nc2ccc(Cl)cc2[nH]c1=O)C(O)c1ccc(Cl)cc1Cl)c1ccncc1 (stereo not drawn)
- GI50 [1]: > 100 µM (inactive)
- GI50 [2]: > 100 µM (inactive)
- GI50 [3]: > 100 µM (inactive)
- GI50 [4]: > 100 µM (inactive)
- GI50 [5]: > 100 µM (inactive)
- GI50 [6]: > 100 µM (inactive)
- GI50 [7]: > 100 µM (inactive)
- GI50 [8]: > 100 µM (inactive)
- GI50 [9]: > 100 µM (inactive)
- GI50 [10]: > 100 µM (inactive)
- GI50 [11]: > 100 µM (inactive)
- GI50 [12]: > 100 µM (inactive)
- GI50 [13]: > 100 µM (inactive)
- GI50 [14]: > 100 µM (inactive)

Structure (SMILES): CCOc1cc2c[n+](C)c3c4cc(OC)c(OC)cc4ccc3c2cc1OC
- GI50 [2]: > 100 µM (inactive)
- GI50 [3]: 13.6 µM (inactive)
- GI50 [4]: > 100 µM (inactive)
- GI50 [6]: > 100 µM (inactive)
- GI50 [7]: > 100 µM (inactive)
- GI50 [8]: > 100 µM (inactive)
- GI50 [9]: 97.5 µM (inactive)
- GI50 [10]: > 100 µM (inactive)
- GI50 [15]: > 100 µM (inactive)
- GI50 [11]: > 100 µM (inactive)
- GI50 [12]: > 100 µM (inactive)
- GI50 [13]: > 100 µM (inactive)
- GI50 [16]: 20.4 µM (inactive)
- GI50 [14]: > 100 µM (inactive)

Structure (SMILES): Cc1cccc(C)c1NC(=O)C(=O)CC(=O)c1cccc([N+](=O)[O-])c1
- GI50 [2]: > 100 µM (inactive)
- GI50 [3]: > 100 µM (inactive)
- GI50 [4]: > 100 µM (inactive)
- GI50 [5]: > 100 µM (inactive)
- GI50 [6]: > 100 µM (inactive)
- GI50 [7]: > 100 µM (inactive)
- GI50 [8]: > 100 µM (inactive)
- GI50 [9]: > 100 µM (inactive)
- GI50 [10]: > 100 µM (inactive)
- GI50 [15]: > 100 µM (inactive)
- GI50 [11]: > 100 µM (inactive)
- GI50 [12]: > 100 µM (inactive)
- GI50 [13]: > 100 µM (inactive)
- GI50 [16]: > 100 µM (inactive)
- GI50 [14]: > 100 µM (inactive)

Structure (SMILES): COc1ccc(C2c3cc4c(cc3OC(O)(CO)C2C(=O)O)OCO4)c(OC)c1OC.COc1ccc(C2c3cc4c(cc3OC3(O)COC(=O)C23)OCO4)c(OC)c1OC (stereo not drawn)
- GI50 [1]: > 100 µM (inactive)
- GI50 [2]: > 100 µM (inactive)
- GI50 [3]: > 100 µM (inactive)
- GI50 [4]: > 100 µM (inactive)
- GI50 [5]: > 100 µM (inactive)
- GI50 [7]: > 100 µM (inactive)
- GI50 [8]: > 100 µM (inactive)
- GI50 [9]: 45 µM (inactive)
- GI50 [10]: > 100 µM (inactive)
- GI50 [15]: > 100 µM (inactive)
- GI50 [11]: 46.2 µM (inactive)
- GI50 [12]: > 100 µM (inactive)
- GI50 [13]: 29.2 µM (inactive)
- GI50 [14]: > 100 µM (inactive)

Structure (SMILES): COc1ccc([C@@H]2OC(=O)C3C2C(=O)O[C@H]3c2ccc(OC)c(OC)c2)cc1OC (stereo partly drawn)
- GI50 [1]: > 100 µM (inactive)
- GI50 [2]: > 100 µM (inactive)
- GI50 [3]: > 100 µM (inactive)
- GI50 [4]: > 100 µM (inactive)
- GI50 [5]: > 100 µM (inactive)
- GI50 [6]: > 100 µM (inactive)
- GI50 [7]: > 100 µM (inactive)
- GI50 [8]: > 100 µM (inactive)
- GI50 [9]: > 100 µM (inactive)
- GI50 [10]: > 100 µM (inactive)
- GI50 [15]: > 100 µM (inactive)
- GI50 [11]: > 100 µM (inactive)
- GI50 [12]: > 100 µM (inactive)
- GI50 [13]: > 100 µM (inactive)
- GI50 [14]: > 100 µM (inactive)

Structure (SMILES): Cn1ncc2c(c1=O)Nc1ccccc1S2(=O)=O
- GI50 [1]: > 100 µM (inactive)
- GI50 [2]: 10.8 µM (inactive)
- GI50 [3]: > 100 µM (inactive)
- GI50 [4]: 34.6 µM (inactive)
- GI50 [5]: > 100 µM (inactive)
- GI50 [6]: > 100 µM (inactive)
- GI50 [7]: > 100 µM (inactive)
- GI50 [8]: > 100 µM (inactive)
- GI50 [10]: > 100 µM (inactive)
- GI50 [15]: > 100 µM (inactive)
- GI50 [11]: > 100 µM (inactive)
- GI50 [12]: > 100 µM (inactive)
- GI50 [13]: > 100 µM (inactive)
- GI50 [16]: 51.3 µM (inactive)
- GI50 [14]: 54.7 µM (inactive)

Structure (SMILES): Cc1ccc(C)c(N2C(=O)C(=O)C(c3nc4ccccc4s3)C(=O)C2=O)c1
- GI50 [1]: > 100 µM (inactive)
- GI50 [2]: > 100 µM (inactive)
- GI50 [3]: > 100 µM (inactive)
- GI50 [4]: 83.8 µM (inactive)
- GI50 [5]: > 100 µM (inactive)
- GI50 [6]: > 100 µM (inactive)
- GI50 [7]: > 100 µM (inactive)
- GI50 [8]: > 100 µM (inactive)
- GI50 [9]: > 100 µM (inactive)
- GI50 [10]: > 100 µM (inactive)
- GI50 [15]: > 100 µM (inactive)
- GI50 [11]: > 100 µM (inactive)
- GI50 [12]: > 100 µM (inactive)
- GI50 [13]: > 100 µM (inactive)
- GI50 [14]: > 100 µM (inactive)

Structure (SMILES): COc1cc(C2C(C(=O)Nc3ccc([N+](=O)[O-])cc3)=C(C)NC(C)=C2C(=O)Nc2ccc([N+](=O)[O-])cc2)ccc1O
- GI50 [1]: 27.9 µM (inactive)
- GI50 [2]: 21.6 µM (inactive)
- GI50 [3]: 19.4 µM (inactive)
- GI50 [4]: 16.8 µM (inactive)
- GI50 [5]: 16.7 µM (inactive)
- GI50 [6]: 24.2 µM (inactive)
- GI50 [7]: 23.9 µM (inactive)
- GI50 [8]: 37.6 µM (inactive)
- GI50 [9]: 0.515 µM (active)
- GI50 [10]: 24.9 µM (inactive)
- GI50 [15]: 27 µM (inactive)
- GI50 [11]: 13.5 µM (inactive)
- GI50 [12]: 25.7 µM (inactive)
- GI50 [13]: 16.4 µM (inactive)
- GI50 [16]: 5.07 µM (inactive)
- GI50 [14]: 16.4 µM (inactive)

Structure (SMILES): Cc1ns/c(=N\C(=S)N(C)C)n1C
- GI50 [1]: > 100 µM (inactive)
- GI50 [2]: > 100 µM (inactive)
- GI50 [3]: > 100 µM (inactive)
- GI50 [4]: > 100 µM (inactive)
- GI50 [5]: > 100 µM (inactive)
- GI50 [6]: > 100 µM (inactive)
- GI50 [7]: > 100 µM (inactive)
- GI50 [8]: > 100 µM (inactive)
- GI50 [9]: > 100 µM (inactive)
- GI50 [10]: > 100 µM (inactive)
- GI50 [15]: > 100 µM (inactive)
- GI50 [11]: > 100 µM (inactive)
- GI50 [12]: > 100 µM (inactive)
- GI50 [13]: > 100 µM (inactive)
- GI50 [16]: > 100 µM (inactive)
